Measured values published in US10111933B2, “Use of growth hormone fragments” (Metabolic Pharmaceuticals Pty Ltd, priority 2011, dated 2018).
Entries after “also recorded” stand apart in the source; their conditions may differ. Ends that are not written are not given here.

Experiments:
[1] = system: Chondrocytes isolated from articular cartilage; experiment: Chondrocyte culture on collagen type II-coated filter, cartilage tissue formation; assay type: cell-based, calf; conditions: for toxicity to cells as determined by DNA content: 10 or 100 μg/ml, 2 weeks of treatment (3 weeks culture), FIG. 1
Experimental: Chondrocytes were isolated from articular cartilage obtained aseptically from calf metacarpal-carpal joints and seeded onto collagen type II-coated membrane inserts (Millipore™) (1.5×10^6 cells/12 mm diameter membrane). Chondrocytes were grown in Ham's F-12 supplemented with 5% fetal bovine serum (FBS) under standard culture conditions. After 5 days the serum was increased to 20%. Chondrocytes were then grown in the presence and absence of AOD9604 (SEQ ID NO: 1) (10 or 100 μg/ml) for 2 weeks (total culture time 3 weeks). Fresh AOD was added with each change of media.
The tissue was harvested and digested with papain (Sigma, 40 μg/ml) for 48 h at 65° C. DNA content was determined using the Hoechst 33258 dye binding assay (Polysciences) and fluorometry (excitation 365 nm, emission 458 nm). Proteoglycan content was determined by measuring the amount of sulphated glycosaminoglycans using the dimethylmethylene blue dye binding assay and spectrophotometry (525 nm). Collagen content was determined by measuring the hydroxyproline content of an aliquot of the papain digest hydrolyzed in 6N HCl for 18 h at 110° C. The hydroxyproline content was determined using the chloramine-T/Ehrlich's reagent assay and spectrophotometry (560 nm). The cellularity was quantified by measuring the DNA content using Hoescht 33258 dye binding assay (Polysciences) and fluorometry (excitation 365 nm, emission 458 nm).
(§1) All experiments were done three times and each condition was done in triplicate. The data was expressed as mean±SD. […]. Significance was determined using two way ANOVA followed by Tukey's post hoc test when multiple groups were being evaluated. T test was utilized if 2 groups were being compared. Significance was assigned at p values <0.05.

[2] = system: Cartilage explants (native cartilage); experiment: Native cartilage explant culture; assay type: cell-based, calf
Experimental: Cartilage explants were taken from calf metacarpal-carpal joints and placed in culture in Ham's F-12 supplemented with 20% fetal bovine serum (FBS) in the presence and absence of AOD9604 (SEQ ID NO: 1) (10 or 100 μg/ml) for 1 week or (100 or 500 μg/ml) for 2 weeks.
The tissue was harvested and water content and dry weight measured. The tissue was then digested with papain (Sigma, 40 μg/ml) for 48 h at 65° C. DNA content was determined using the Hoechst 33258 dye binding assay (Polysciences) and fluorometry (excitation 365 nm, emission 458 nm). Proteoglycan content was determined by measuring the amount of sulphated glycosaminoglycans using the dimethylmethylene blue dye binding assay and spectrophotometry (525 nm). Collagen content was determined by measuring the hydroxyproline content of an aliquot of the papain digest hydrolyzed in 6N HCl for 18 h at 110° C. The hydroxyproline content was determined using the chloramine-T/Ehrlich's reagent assay and spectrophotometry (560 nm). The cellularity was quantified by measuring the DNA content using Hoescht 33258 dye binding assay (Polysciences) and fluorometry (excitation 365 nm, emission 458 nm.
as §1

C2C12 cells [3] = experiment: C2C12 differentiation into myoblasts (myogenin staining); assay type: cell-based
Experimental: C2C12 (2×10^3 cells/cm^2) were grown in DMEM and 10% FBS. Differentiation was induced by replacing growth media with differentiation media which consists of DMEM supplemented with 2% horse serum. The cells were grown in the absence or presence of AOD9604 (10 or 100 μg/ml). The cells were fixed in 4% paraformaldehyde and co-stained for myogenin (a muscle specific muscle marker (transcription factor) 1/250 Tris-Triton X buffer) and Bodipy (cytoplasmic stain, Invitrogen, 1/1000 PBS). The number of cells stained for myogenin were counted in 4 random fields (up to 100 cells/field) (n=4). The percent of cells that stained positively for myogenin was calculated.
(§2) The data was expressed as mean±SD. The data was expressed as mean±SD. Significance was determined using two way ANOVA followed by Tukey's post hoc test when multiple groups were being evaluated. T test was utilized if 2 groups were being compared. Significance was assigned at p values <0.05.

C2C12 cells [4] = experiment: C2C12 myotube quantification (Bodipy staining); assay type: cell-based; conditions: over 72 hours, FIG. 11
Experimental: For myotube quantification the cells were stained with Bodipy (Invitrogen, 1/1000 PBS) according to the manufacturer's directions. The number of myotubes that developed over 72 hours was determined and expressed as a percent of total cells in culture (n=3, 100 cells/culture).
as §2

C2C12 cells [5] = experiment: C2C12 cell proliferation (DNA content); assay type: cell-based; conditions: 10 and 100 μg/ml, 3 days, FIG. 12
Experimental: C2C12 were grown in monolayer culture in DMEM (high glucose) supplemented with 10% fetal bovine serum under standard cell culture conditions. The cells were passaged at 60-70% confluence. The effect of AOD9604 (SEQ ID NO: 1) on cell proliferation was determined by growing the cells (3000 cells/cm^2) in the absence or presence of AOD9604 (10 and 100 μg/ml) for 3 days. The DNA content was then quantified. The cells were digested by papain and DNA content determined using the Hoechst 33258 dye binding assay (Polysciences) and fluorometry (excitation 365 nm, emission 458 nm).
as §2

[6] = system: rabbit collagenase model of osteoarthritis; experiment: Rabbit collagenase model of osteoarthritis, intra-articular administration; assay type: in vivo, New Zealand White Rabbit; conditions: 4 weekly intra-articular injections of 0.25 mg, 9 weeks post collagenase
Experimental: AOD9604 (SEQ ID NO: 1) was provided by Metabolic Pharmaceutical Pty Ltd.
Treatments groups: 32 rabbits were each given a 2 mg collagenase injection into their right knee joint, followed by a second injection 3 days later to induce osteoarthritis. After 4 weeks, the rabbits were divided into 4 groups of 8 for subsequent treatments.
Group 1 received 4 weekly injections of vehicle (disease control group).
Group 2 received 4 weekly injections of 6 mg of HA-hyuran-plus (HA positive control group).
Group 3 received 4 weekly injections of 0.25 mg of AOD9604 (AOD only group).
Group 4 received 4 weekly injections of both HA and AOD9604 (combination group).
Clinical observations were made by direct observation daily to assess lameness (as described in Kim et al., (2010) supra). At 9 weeks post initial collagenase injection the animals were euthanized.
Gross observation of the right and left knee joints was performed after dissection and scored for damage (as described in Kim et al., (2010) supra). Histological analysis of lateral and medial condyles from each joint was performed and scored.
A statistical analysis of the data was performed and the results are shown in FIGS. 13 (Group 1), 14 (Group 2), 15 (Group 3) and 16 (Group 4).

[7] = system: symptoms consistent with Clostridium tetani infection; parameters: species or system human; conditions: in vivo, sc
1.5 cm tear on soleus = experiment: Case study: calf muscle (soleus) tear; assay type: in vivo, human; conditions: transdermal 600 mcg per dose twice daily, total 20 ml
Text: The subject was a professional footballer. The athlete incurred at 1.5 cm tear on their soleus near the adjacent aponeurosis to the gastrocnemius. […] A 1.5 cm tear is considered a moderately large tear for the region. […] The fibre tears were directional with the orientation of the fibres. The length of the tear was 1.5 cm.
The subject undertook an intervention of AOD9604 (SEQ ID NO: 1) at 600 mcg per dose. He applied one ml twice daily. The transdermal application was at 600 mcg per ml. The total application was 20 ml.

[8] = system: tear to the long head of bicep femoris; experiment: Case study: hamstring muscle tear; assay type: in vivo, human; conditions: transdermal 600 mcg per dose twice daily, total 40 ml
Text: The subject was a professional footballer. The athlete incurred at 2.0 cm tear to the long head of their bicep femoris. […] Some fibre disruption was noted below the tendon junction coming from the insertion. The length of the tear was 1.5 cm. The fusiform belly region around the injury was highly inflamed.
The subject undertook an intervention of AOD9604 (SEQ ID NO: 1) at 600 mcg per dose. They applied one ml twice daily. The transdermal application was at 600 mcg per ml. The total application was 40 ml.

[9] = system: fibre disruption at the junction of supraspinatus tendon insertion; experiment: Case study: shoulder tendon; assay type: in vivo, human; conditions: transdermal 600 mcg per dose twice daily, total 30 ml
Text: The subject was a professional footballer. The athlete incurred some fibre disruption at the junction of supraspinatus tendon insertion. The MRI indicated an area of 1.0 cm within the disruptive pathology. […] Most of the affected area was the muscular portion of the junction. […] The athlete had been restricted in both the range of motion they could employ for the injured site as well as the amount of weight bearing activity they could engage for the area. They had been finding it difficult to abduct the arm at the shoulder joint.
The subject undertook an intervention of AOD9604 (SEQ ID NO: 1) at 600 mcg per dose. They applied one ml twice daily. The transdermal application was at 600 mcg per ml. The total application was 30 ml.

[10] = system: contusion to the rectus femoris; experiment: Case study: corked quad, hematoma; assay type: in vivo, human; conditions: transdermal 600 mcg per dose twice daily, total 20 ml
Text: The subject was a professional footballer. The athlete incurred a contusion to the rectus femoris adjacent to the central tendon. The MRI indicated an area of 2.0 cm area for the contusion. […] There was a minor degree of associated edema associated with the pathology. The MRI confirmed that there was fibre disruption but no true tear. The central tendon remained intact. The injury was an acute injury. The athlete identified discomfort on weight bearing movement and the mass was easily palpatable. Any hip flexion movement could induce discomfort and awareness of the injury. Although the muscle is not considered a dominant muscle in knee extension movement the affected area was painful and inducing discomfort with such work.
The subject undertook an intervention of AOD9604 (SEQ ID NO: 1) at 600 mcg per dose. They applied one ml twice daily. The transdermal application was at 600 mcg per ml. The total application was 20 ml.

[11] = system: osteoblast and osteoclast formation; conditions: cited from earlier work
IGF-1 = conditions: effective dose, clinical trials; cited from earlier work
C57Bl/6J (Ob/Ob) mouse = conditions: cited from earlier work

## YLRIVQCRSVEGSCGF (cysteine pairing not given here) [AOD9604]
[1]; 100 μg/ml, 3 weeks of culture, FIG. 2
  proteoglycan content of the tissue: increasing
[1]; 100 μg/ml, 3 weeks of culture, FIG. 3
  collagen content of the tissue: increasing
[1]
  toxicity to cells as determined by DNA content: not toxic
[1]; listed as AOD
  toxicity to cells as determined by DNA content: does not have a toxic effect on cells
[2]; 500 μg/ml, FIGS. 5-8
  effect on native cartilage: no effect
[2]; FIGS. 5 and 7
  proteoglycan content of native cartilage: does not affect
[2]; FIGS. 6 and 8
  collagen content of native cartilage: does not affect
[2]; up to 500 μg/ml, 2 weeks of treatment, FIG. 4, listed as AOD
  toxicity / DNA content of native cartilage: not toxic; also recorded: no effect
C2C12 cells [3]; 3 days (72 hours), doses as low as 10 μg/ml, FIG. 10
  differentiation of C2C12 cells into myoblasts: enhances
C2C12 cells [3]; 3 days (72 hours), doses as low as 10 μg/ml, FIG. 10, listed as AOD
  differentiation of C2C12 cells into myoblasts: induces differentiation
C2C12 cells [3]; after 24 hours of treatment, FIG. 9
  differentiation of C2C12 cells into myoblasts: induces differentiation
C2C12 cells [4]
  formation of myotubes: no affect
C2C12 cells [4]; listed as AOD
  formation of myotubes: does not enhance
C2C12 cells [5]
  cell proliferation: did not affect
C2C12 cells [5]; listed as AOD
  cell proliferation: does not enhance myotube Formation or alter cell proliferation
[6]
  regeneration compared to control (histological analysis of condyles): has regenerative power compared to control
[7]
  pain: considerably reduced
  resolution of symptoms: fully resolved at around day eight
  return to activity: resumed full running and moderate weight lifting activity on day eight
1.5 cm tear on soleus
  follow up MRI: full integrity had returned to the injury
  residual pain or discomfort: no residual pain or discomfort
  resolution of injury: resolved in two weeks
  return to weight bearing activities: returned to full weight bearing activities
[8]
  follow up MRI: full integrity had returned to the bicep femoris long head
  residual pain or discomfort: no residual pain or discomfort
  resolution of injury: resolved in three weeks
  return to weight bearing activities: returned to full weight bearing activities
[9]
  residual pain or discomfort: no residual pain or discomfort
  resolution of injury: resolved in three weeks
  return to weight bearing activities: returned to full weight bearing activities and rotation activity
  subsequent MRI: full integrity had returned to the junctional area
[10]
  pain or discomfort on resumed weight bearing: no immediate pain or discomfort
  resolution of injury: resolved in two weeks
  return to weight bearing activity: returned to full weight bearing activity
  subsequent MRI: return to full anatomical integrity
[11]
  formation of osteoclasts: without an increase
  osteoblast formation: increased
IGF-1
  plasma level of IGF-1: did not elevate

## hGH 177-191: synthetic peptide corresponding to amino acid residues 177-191 of human growth hormone sequence (LRIVQCRSVEGSCGF; UniProt P01241 203-217, looked up, fragment)
C57Bl/6J (Ob/Ob) mouse
  adipose tissue mass: reduce
  body weight gain: reduce
